Measurements from US9359322B2, “C-linked glucuronide of N-(4-hydroxybenzyl) retinone, analogs thereof, and methods of using the same to inhibit neoplastic cell growth” (Wisconsin Alumni Research Foundation, priority 2005, dated 2016).
Marks after values point to notes of the source that are not given here.

How the values were obtained:
[1] = tested on: DMBA-induced rat mammary tumor; conditions: cited from earlier work
[2] = cited from earlier work
[3] = molecular target: serum retinol-binding protein, RBP (Homo sapiens, UniProt P02753); conditions: cited from earlier work
[4] = tested on: DMBA-induced rat mammary tumor; assay: DMBA-induced rat mammary tumor model, retinoid-containing diets; format: in vivo
Description: Preliminary evaluation of the mammary tumor chemotherapeutic activity of 4-HBRCG (7) was conducted, and its toxicity profile was also assessed. As previously described,^7, 12 tumor-bearing female rats (treated ca. 50 days earlier with 7,12-dimethylbenz(a)anthracene [DMBA]) were fed the control or retinoid-containing diets (RA (2), 4-HPR (3) or 4-HBRCG (7)) at 2 mmole/kg diet for 22 days.
(§1) Animal Studies: Mammary tumors were induced by intragastric intubation of 50-day old female Sprague-Dawley rats (Harlan Industries, Indianapolis, Ind.) with a single dose of 15 mg DMBA in 1.0 ml of sesame oil per rat. The rats were then maintained on a powdered Teklad 22/5 rodent chow diet (W) 8640 (Harlan Industries, Indianapolis, Ind.), and allowed food and water ad libitum. Four months later, rats which had developed palpable tumors were randomly assigned to the experimental groups (4 rats/group). The retinoid-treated groups were fed diets supplemented with 2 mmol/kg diet of atRA, 4-HPR, or 4-HBRCG, respectively. The retinoids were added to the diet in a vehicle consisting of 25 ml of ethanol: tricaprylin (1:4 v/v) plus 2% (w/v) of α-tocopherol as previously described.^9 This vehicle was also added to the control diet. The additives were blended into the chow diets using a Hobart food mixer. The diets were fed in stainless steel feeders designed with food hoppers. The food was replaced weekly with freshly prepared diets. Food consumption was determined once weekly, and from that the average daily consumption/rat was estimated. These diets were continuously fed for 22 days. Animals were also weighted weekly and monitored for general health status and signs of possible toxicity due to treatment.
(§2) Baseline measurement of initial tumor sizes, numbers and rat body weights were determined immediately before commencement of treatments, and final measurements were recorded just prior to sacrifice of the animals. Animals were palpated for tumors twice weekly and tumor diameters were measured weekly by a micrometer caliper. Tumor volumes were calculated using the formula [V= 4/3 πr^3] where r is one-half the mean of the sum of the largest diameter and the axis at right angle to it. All tumors as well as lungs, liver, kidney and femur were excised at the end of the experiment for chemical and histopathological evaluation. Blood samples were also taken from each animal for determination of plasma retinol and triglyceride levels.

[5] = Body weight change during retinoid feeding; format: in vivo, rat; conditions: relative to baseline body weight over 22 days; 2 mmol/kg diet
Description: as §1, §2

[6] = Plasma retinol level (HPLC); format: in vivo, rat; conditions: 2 mmol/kg diet
Description: as §2
(§3) Plasma Retinoid Assay. To 500 μL of plasma was added 150 μL of ethanol containing 0.75 μg of internal standard (N-(4-chlorophenyl) retinamide). After mixing 30 sec., 500 μL of ethyl acetate was added followed by 1 min. of mixing and centrifugation for 5 minutes at 1000 rpm in an IEC CL centrifuge. The ethyl acetate layer was removed and syringe filtered through a 0.45 um filter. The ethyl acetate extraction was repeated two more times. The combined extracts were evaporated and the residue reconstituted in 100 μL of methanol. The methanol extract (20 μL) was analyzed by HPLC on a Beckman Instruments model 127 instrument equipped with a model 166 UV detector. Chromatography was done on a precolumn equipped 250×4.6 mm Bechman Ultrasphere ODS column with an 85% methanol/water mobile phase (both containing 10 mM ammonium acetate) flowing at 1 mL/min. Analysis for both internal standard and retinol was conducted at 350 nm and internal standard recoveries and retinol levels were determined by comparison with standard curves, with adjustment of the retinol level based on recovery. Recoveries of internal standard averaged ca. 78%. […] In the 4-HPR treated group, plasma levels of this retinoid were evaluated simultaneously in the same samples as above. In order to avoid interfering substances, plasma treatment retinoid levels for RA and 4-HBRCG were measured using the above system and a step gradient of 75% methanol for 15 min. followed by 85% methanol for 40 minutes.

[7] = Terminal plasma drug levels (plasma retinoid assay, HPLC); format: in vivo, rat; conditions: day 22 of treatment; 2 mmol/kg diet; ± SEM
Description: as §3

[8] = Plasma triglyceride measurement; format: in vivo, rat; conditions: 2 mmol/kg diet, 22 days; FIG. 2A
Description: Plasma Triglyceride Measurement. Bloods were drawn from anesthetized animals in the presence of EDTA as an anticoagulant, and the resulting plasma was used for the measurement of plasma “true” triglyceride levels using a kit from Sigma-Aldrich (Saint Louis, Mo.). Briefly, the total plasma triglyceride and glycerol concentrations were determined, and the glycerol component was subtracted from the total plasma triglyceride measurement to obtain the “true” serum triglyceride concentration.

[9] = Femur bone mineral content; format: in vivo, rat; conditions: end of feeding study; FIG. 2B
Text: Bone Mineral Content. The femur was disarticulated from the leg, and the adhering soft tissue was removed by dissection. Femurs were scanned using the Lunar PIXImus 2 system (Model X2608, General Electric using the LUNAR software version 1.45), and control measurements were made using the small animal quality control phantom. Femurs were scanned 5 times each with re-positioning at each measure. The average value of the bone mineral content (BMC) in grams for each animal is reported as one independent measure.

CYP26A1 mRNA = assay: Induction of CYP26A1 mRNA in liver (Q-PCR); format: in vivo, rat; conditions: at sacrifice, retinoid-fed rats, 2 mmol/kg diet; FIG. 4
CYP26B1 mRNA [10] = assay: Induction of CYP26B1 mRNA in lung (Q-PCR); format: in vivo, rat; conditions: at sacrifice, retinoid-fed rats, 2 mmol/kg diet; data not shown
RARβ = molecular target: T1, RARβ (Homo sapiens, UniProt P10826); conditions: cited from earlier work
T1 sequence (P10826 1-455): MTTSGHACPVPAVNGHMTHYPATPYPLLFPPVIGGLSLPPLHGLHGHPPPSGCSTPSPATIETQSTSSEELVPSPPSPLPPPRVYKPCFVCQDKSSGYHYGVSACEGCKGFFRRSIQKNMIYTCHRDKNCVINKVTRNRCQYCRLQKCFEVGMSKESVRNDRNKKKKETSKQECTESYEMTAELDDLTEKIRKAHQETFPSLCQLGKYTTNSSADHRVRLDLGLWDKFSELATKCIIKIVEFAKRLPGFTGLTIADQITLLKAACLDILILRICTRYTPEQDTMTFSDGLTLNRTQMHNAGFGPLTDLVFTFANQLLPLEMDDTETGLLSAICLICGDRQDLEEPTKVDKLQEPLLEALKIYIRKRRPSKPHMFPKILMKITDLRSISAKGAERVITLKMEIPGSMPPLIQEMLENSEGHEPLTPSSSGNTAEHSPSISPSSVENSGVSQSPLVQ

RARγ = molecular target: T2, RARγ (Homo sapiens, UniProt P13631); conditions: cited from earlier work
T2 sequence (P13631 1-454): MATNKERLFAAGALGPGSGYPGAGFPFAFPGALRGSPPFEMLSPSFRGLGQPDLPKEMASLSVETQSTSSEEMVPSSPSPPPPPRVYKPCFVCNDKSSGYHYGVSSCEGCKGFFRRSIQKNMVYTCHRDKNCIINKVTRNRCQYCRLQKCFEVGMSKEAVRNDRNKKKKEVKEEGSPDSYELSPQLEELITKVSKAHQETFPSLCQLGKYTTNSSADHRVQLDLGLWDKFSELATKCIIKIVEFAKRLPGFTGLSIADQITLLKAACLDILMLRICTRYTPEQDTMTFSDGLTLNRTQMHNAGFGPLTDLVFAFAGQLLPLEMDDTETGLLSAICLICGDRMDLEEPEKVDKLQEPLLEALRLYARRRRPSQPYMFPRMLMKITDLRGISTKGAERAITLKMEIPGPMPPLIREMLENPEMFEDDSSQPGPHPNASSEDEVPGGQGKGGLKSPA

CYP26B1 mRNA [11] = conditions: vitamin A-deficient rats; background; cited from earlier work
[12] = background statement; cited from earlier work
[13] = vitamin A-deficient rats; cited from earlier work
[14] = number of individual tumors, 2 mmol/kg diet, 22 days

CC1=C(/C=C/C(C)=C/C=C/C(C)=C/C(=O)Cc2ccc(O)cc2)C(C)(C)CCC1 [4-HBR, 4-hydroxybenzyl retinone]
Chemotherapeutic activity in DMBA-induced rat mammary tumor model [1]: equiactive chemotherapeutics | Effect on blood retinol levels [2]: does not lower blood retinol levels | Binding to RBP [3]: equivalent binding to RBP

CC1=C(/C=C/C(C)=C/C=C/C(C)=C/C(=O)Nc2ccc(O)cc2)C(C)(C)CCC1 [4-HPR (3), N-(4-hydroxyphenyl) retinamide]
% Change in tumor volume from baseline ([4]; 2 mmol/kg diet for 22 days): −33 ^d % | Final tumor volume ([4]; 2 mmol/kg diet for 22 days, mean ± SEM): 0.08 ± 0.02 cm^3 | Initial tumor volumes ([4]; baseline before treatment, mean ± SEM): 0.12 ± 0.03 cm^3 | Complete regression (tumors that totally disappeared) [4, 14]: 1 | No effect [4, 14]: 3 | Partial regression (tumors with 25-75% decrease in volume) [4, 14]: 15 | New tumors ([4]; number of tumors, 2 mmol/kg diet, 22 days): 0 | % Weight change [5]: +3% | Effect on blood retinol [6]: the same amount of 4-HPR did | Plasma retinol ([6]; day 22 of treatment, mean ± SEM): 0.21 ± 0.05 ^e μg/ml | Plasma retinoid concentration (terminal plasma drug level) [7]: 0.67 ± 0.07 µg/mL | Effect on serum triglyceride concentration [8]: small but insignificant increase | Effect on femur bone mineral content vs control [9]: showed no such effect | Induction of CYP26A1 mRNA in liver (CYP26A1 mRNA): 37 fold above control | Induction of CYP26B1 mRNA in lung (CYP26B1 mRNA [10]): 20 fold above control | Chemotherapeutic activity in DMBA-induced rat mammary tumor model [1]: equiactive chemotherapeutics | Times less potent than atRA in competing for [3H]atRA binding to RARβ (RARβ): ~3000 times | Times less able than atRA to compete for binding to RARγ (RARγ): 2500 times | Induction of CYP26B1 mRNA expression in lungs (CYP26B1 mRNA [11]): induces CYP26B1 mRNA expression in a RA-like manner | Teratogenicity relative to RA [12]: 100 times less teratogenic than RA | Binding to RBP [3]: equivalent binding to RBP | Hydrolysis to liberate retinoic acid [13]: is hydrolyzed to liberate retinoic acid
